From ChEMBL document CHEMBL4387712, “Development of the binding molecules for the RNA higher-order structures based on the guanine-recognition by the G-clamp” (Bioorg Med Chem Lett, 2019)
One block for each compound: values may come before it. Activity calls are given as the source filed them. The rule behind the calls is not given here.

Columns and labels:
[1] = Binding affinity to G0 RNA (unknown origin) at 10 nM by fluorescence spectra analysis
[2] = Binding affinity to stem-loop RNA (unknown origin) at 10 nM by fluorescence spectra analysis
[3] = Binding affinity to stem-duplex RNA (unknown origin) at 10 nM by fluorescence spectra analysis
[4] = Binding affinity to sh(-GUG-) RNA (unknown origin) assessed as increase in fluorescence at 10 nM by fluorescence spectra analysis relative to control
[5] = Binding affinity to sh(-CUA-) RNA (unknown origin) assessed as increase in fluorescence at 10 nM by fluorescence spectra analysis
[6] = Binding affinity to ssRNA-5 mer (unknown origin) assessed as increase in fluorescence at 10 nM by fluorescence spectra analysis
[7] = Binding affinity to sh(-CUG-) RNA (unknown origin) assessed as increase in fluorescence at 10 nM by fluorescence spectra analysis relative to control
[8] = Binding affinity to sh(-GUA-) RNA (unknown origin) assessed as increase in fluorescence at 10 nM by fluorescence spectra analysis relative to control
[9] = Binding affinity to sh(-GUG-) RNA (unknown origin) by fluorescence titration method
[10] = Binding affinity to sh(-CUG-) RNA (unknown origin) by fluorescence titration method
[11] = Binding affinity to sh(-GUA-) RNA (unknown origin) by fluorescence titration method
[12] = Binding affinity to sh(-GUG-) RNA (unknown origin) assessed as hypochromic effect at 10 uM by UV-vis spectral analysis
[13] = Binding affinity to sh(-CUA-) RNA (unknown origin) assessed as change in UV spectrum at 10 uM by UV-vis spectral analysis
[14] = Binding affinity to sh(-GUG-) RNA (unknown origin) at 10 uM by circular dichroism
[15] = Binding affinity to sh(-CUA-) RNA (unknown origin) at 10 uM by circular dichroism
[16] = Binding affinity to wild-type full length pre-miRNA-17 (unknown origin) assessed as increase in fluorescence intensity at 10 nM by fluorescence spectra analysis
[17] = Binding affinity to hairpin G2 RNA mutant (unknown origin) assessed as increase in fluorescence intensity at 10 nM by fluorescence spectra analysis
[18] = Binding affinity to mismatch G2 RNA mutant (unknown origin) assessed as increase in fluorescence intensity at 10 nM by fluorescence spectra analysis
[19] = Binding affinity to overhang G2 RNA mutant (unknown origin) assessed as increase in fluorescence intensity at 10 nM by fluorescence spectra analysis
[20] = Binding affinity to sh(-GUG-) RNA (unknown origin) assessed as bathochromic effect at 10 uM by UV-vis spectral analysis
[21] = Binding affinity to sh(-CUG-) RNA (unknown origin) at 10 nM by fluorescence spectra analysis
[22] = Binding affinity to sh(-CUA-) RNA (unknown origin) at 10 nM by fluorescence spectra analysis
[23] = Binding affinity to ssRNA-5 mer (unknown origin) at 10 nM by fluorescence spectra analysis
[24] = Binding affinity to sh(-GUA-) RNA (unknown origin) at 10 nM by fluorescence spectra analysis
[25] = Binding affinity to sh(-GUG-) RNA (unknown origin) at 10 nM by fluorescence spectra analysis

Activity [1]: Active | Activity [2]: Active | Activity [3]: Active | Activity [4]: Active | fold change (FC) [4]: 7 | Activity [5]: inactive | Activity [6]: inactive | fold change (FC) [7]: 4.1 | fold change (FC) [8]: 2.6 | Kd [9]: 9 nM | Kd [10]: 27 nM | Kd [11]: 103 nM | Activity [12]: Active | Activity [13]: inactive | Activity [14]: Active | Activity [15]: inactive | Activity [16]: Active | Activity [17]: Active | Activity [18]: Active | Activity [19]: Active | Activity [20]: Active
SMILES: CN(CCCNC(=O)Cn1cc2c(nc1=O)Nc1c(OCCN)cccc1O2)CCCNC(=O)Cn1cc2c(nc1=O)Nc1c(OCCN)cccc1O2

Activity [21]: Active | Activity [22]: inactive | Activity [23]: inactive | Activity [24]: inactive | Activity [25]: Active | Kd [10]: 155 nM | Kd [11]: 202 nM
SMILES: CN(C)CCCNC(=O)Cn1cc2c(nc1=O)Nc1c(OCCN)cccc1O2
